One series relates to IMR5. In words: combination studies with PV-10, alamar Blue. Conditions: IMR5, in combination with 50 μM PV-10, 96 hours. The format is cell-based. The method, then: (§1) Cells were cultured as described for cytotoxicity assays. A dilution series of three test drugs (doxorubicin, etoposide, vincristine) were prepared in DMEM containing either PBS (vehicle control) or PV10 (50 µM final) and added to cells in triplicate. Plates were cultured, washed and cell viability analyzed by alamar Blue®, as described for cytotoxicity assays. Combination indices (CI) for IC50 of test drug in combination with 50 µM PV-10 were calculated using CompuSyn software (ComboSyn Inc.). CI values were scored according to the following criteria CI<1 indicated synergistic activity, CI=1 indicated additive activity and CI>1 indicated […].
For orientation: Resazurin is reduced to fluorescent resorufin, in cell work by metabolically active cells.

The test system of a further series is SK-N-AS. In words: combination studies with PV-10, alamar Blue. In kind it is cell-based. Conditions: in combination with 50 μM PV-10, 96 hours. How it is done: as §1
Another series relates to SK-N-BE(2). Put plainly: combination studies with PV-10, alamar Blue. In kind it is cell-based. Conditions: in combination with 50 μM PV-10, 96 hours. How it is done: as §1
Another series relates to SK-N-MC. Put plainly: combination studies with PV-10, alamar Blue. In kind it is cell-based. As to conditions: in combination with 50 μM PV-10, 96 hours. The method, then:
as §1

The subject of series [1] is SK-N-AS, SK-N-BE (2), IMR5 and SK-N-MC cells. Put plainly: combination studies with PV-10, summary over cell lines. The format is cell-based. As to conditions: in combination, 96 hours. The method, then: as §1
For series [2] the following is noted: rat; cited from earlier work.

In the case of `COc1cccc2c1C(=O)c1c(O)c3c(c(O)c1C2=O)C[C@@](O)(C(=O)CO)C[C@@H]3O[C@H]1C[C@H](N)[C@H](O)[C@H](C)O1` [Doxorubicin, doxorubicin], the “combination index (CI) for IC50 of test drug” value in the series on IMR5 was 0.38; in the series on SK-N-AS, 0.77; in the series with SK-N-BE(2), 0.72; in the series with SK-N-MC, 0.42. In addition, the “CI values, range over the cell lines” value in series [1] is listed as 0.42-0.77.
In the same order, the values of `CC[C@]1(O)C[C@H]2CN(CCc3c([nH]c4ccccc34)[C@@](C(=O)OC)(c3cc4c(cc3OC)N(C=O)[C@H]3[C@@](O)(C(=O)OC)[C@H](OC(C)=O)[C@]5(CC)C=CCN6CC[C@]43[C@@H]65)C2)C1` [Vincristine, vincristine] are 0.2, 0.35, 0.1, 0.43 and 0.1-0.43.
Consider `COc1cc([C@@H]2c3cc4c(cc3[C@@H](O[C@@H]3O[C@@H]5CO[C@@H](C)O[C@H]5[C@H](O)[C@H]3O)[C@H]3COC(=O)[C@H]23)OCO4)cc(OC)c1O` [Etoposide, etoposide], for which the “combination index (CI) for IC50 of test drug” value with IMR5 stood at 0.65; in the series on SK-N-AS, 0.17; in the series on SK-N-BE(2) it was 0.66; in the series on SK-N-MC, 0.58. In addition, the “CI values, range over the cell lines” value in series [1] was 0.17-0.66.
As to `O=C([O-])c1c(Cl)c(Cl)c(Cl)c(Cl)c1-c1c2cc(I)c(=O)c(I)c-2oc2c(I)c([O-])c(I)cc12.[Na+].[Na+]` [Rose Bengal, 4,5,6,7-tetrachloro-2′,4′,5′,7′-tetraiodofluorescein disodium], in series [2], the “in vivo biological lifetime” value is “a few minutes”.
